According to BindingDB's records for doi:10.1016/j.bioorg.2016.10.002 (Hazara University, 2016):

Legend:
Acetylcholinesterase = Acetylcholinesterase (Electrophorus electricus, UniProt O42275); experiment: In vitro AChE and BChE Assay; settings: pH 8
Procedure: (§1) The synthesized compounds (each separately) were dissolved in a mixture of DMSO (1 ml) and methanol (9 ml) and then diluted in KH2PO4/K2HPO4 buffer (0.1 M, pH 8.0) to obtain desired concentration. […] The mixture was pre-incubated at 30 °C for 10 min and followed by adding 1 mM ATCI or BTCI and incubated again for 15 min. […] Instead of inhibitor, DMSO was used asnegative control to subtract its effect on activity. All reactions were carried out in triplicate.

[1] = biological target: Carboxylic ester hydrolase (Equus caballus, UniProt Q9N1N9); experiment: In vitro AChE and BChE Assay; settings: pH 8
Sequence of Carboxylic ester hydrolase (Q9N1N9 whole entry): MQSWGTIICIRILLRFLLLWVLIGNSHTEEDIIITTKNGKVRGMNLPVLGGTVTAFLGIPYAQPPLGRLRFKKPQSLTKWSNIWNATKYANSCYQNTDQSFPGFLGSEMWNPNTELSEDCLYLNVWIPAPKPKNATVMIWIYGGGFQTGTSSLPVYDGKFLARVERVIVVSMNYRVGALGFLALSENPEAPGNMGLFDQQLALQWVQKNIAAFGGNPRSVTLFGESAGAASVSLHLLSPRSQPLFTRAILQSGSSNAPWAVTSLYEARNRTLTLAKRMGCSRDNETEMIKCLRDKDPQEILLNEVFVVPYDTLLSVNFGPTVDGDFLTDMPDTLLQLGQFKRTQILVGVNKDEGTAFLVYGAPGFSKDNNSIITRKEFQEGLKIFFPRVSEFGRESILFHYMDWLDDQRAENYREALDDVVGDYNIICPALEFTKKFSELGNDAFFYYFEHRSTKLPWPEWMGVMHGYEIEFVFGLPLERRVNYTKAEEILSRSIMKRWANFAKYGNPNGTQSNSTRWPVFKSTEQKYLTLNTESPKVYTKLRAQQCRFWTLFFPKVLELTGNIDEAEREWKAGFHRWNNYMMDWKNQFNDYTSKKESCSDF
Procedure: as §1

Sequence of Acetylcholinesterase (O42275 whole entry): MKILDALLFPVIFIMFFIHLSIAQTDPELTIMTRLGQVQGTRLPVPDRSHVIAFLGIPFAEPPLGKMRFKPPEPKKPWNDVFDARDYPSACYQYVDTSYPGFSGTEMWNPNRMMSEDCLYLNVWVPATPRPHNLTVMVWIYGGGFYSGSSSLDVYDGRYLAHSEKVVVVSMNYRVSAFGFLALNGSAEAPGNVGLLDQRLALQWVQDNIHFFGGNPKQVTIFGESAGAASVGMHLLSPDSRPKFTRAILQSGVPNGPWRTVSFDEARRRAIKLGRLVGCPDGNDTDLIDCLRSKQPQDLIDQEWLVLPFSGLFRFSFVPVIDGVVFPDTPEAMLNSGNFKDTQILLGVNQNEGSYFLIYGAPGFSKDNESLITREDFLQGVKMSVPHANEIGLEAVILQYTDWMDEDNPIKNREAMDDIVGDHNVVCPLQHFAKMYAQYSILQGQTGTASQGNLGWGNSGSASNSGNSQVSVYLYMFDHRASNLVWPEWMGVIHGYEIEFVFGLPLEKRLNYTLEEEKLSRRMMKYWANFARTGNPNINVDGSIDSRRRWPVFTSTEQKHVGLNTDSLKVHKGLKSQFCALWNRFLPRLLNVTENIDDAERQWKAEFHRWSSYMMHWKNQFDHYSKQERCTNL

SMILES	IC50 (Acetylcholinesterase)	IC50 [1]
CC(=O)C1=C(C)NC(N)=NC1c1ccc(OCc2ccccc2)cc1 (stereo not drawn) [1-(2-Amino-4-(4-(benzyloxy)phenyl)-6-methyl-1,4-dihydropyrimidin-5-yl)ethanone (2c)]	39.5 µM	
CC(=O)C1=C(C)NC(N)=NC1c1ccc(Br)cc1 (stereo not drawn) [1-(2-Amino-4-(4-bromophenyl)-6-methyl-1,4-dihydropyrimidin-5-yl)ethanone (2b)]	58 µM	
CC(=O)C1=C(C)NC(N)=NC1c1ccc(Cl)cc1 (stereo not drawn) [1-(2-Amino-4-(4-chlorophenyl)-6-methyl-1,4-dihydropyrimidin-5-yl)ethanone (2e)]	68.3 µM	
CC(=O)C1=C(C)NC(N)=NC1c1ccccc1 (stereo not drawn) [1-(2-Amino-6-methyl-4-phenyl-1,4-dihydropyrimidin-5-yl)ethanone (2a)]	41.3 µM	
CC(=O)C1=C(C)NC(=S)NC1c1ccc(OCc2ccccc2)cc1 (stereo not drawn) [1-(4-(4-(Benzyloxy)phenyl)-6-methyl-2-thioxo-3,4-tetrahydropyrimidin-5-yl)ethanone (1c)]	28.1 µM	
CC(=O)C1=C(C)NC(=S)NC1c1ccc(Br)cc1 (stereo not drawn) [1-(4-(4-Bromophenyl)-6-methyl-2-thioxo-3,4-tetrahydropyrimidin-5-yl)ethanone (1b)]	53.2 µM	
CC(=O)C1=C(C)NC(=S)NC1c1ccc(Cl)cc1 (stereo not drawn) [1-(4-(4-Chlorophenyl)-6-methyl-2-thioxo-3,4-tetrahydropyrimidin-5-yl)ethanone (1e)]	59.9 µM	
CC(=O)C1=C(C)NC(=S)NC1c1ccc(C)cc1 (stereo not drawn) [1-(6-Methyl-2-thioxo-4-p-tolyl-3,4-tetrahydropyrimidin-5-yl)ethanone (1d)]	55.9 µM	
CC(=O)C1=C(C)NC(NCC(=O)Nc2ccc(C)cc2)=NC1c1ccc(Br)cc1 (stereo not drawn) [2-(5-Acetyl-4-(4-bromophenyl)-6-methyl-1,4-dihydropyrimidin-2-ylamino)-N-p-tolylacetamide (5e)]	3.13 µM	20.9 µM
CC(=O)C1=C(C)NC(NCC(=O)Nc2ccccc2)=NC1c1ccc(Br)cc1 (stereo not drawn) [2-(5-Acetyl-4-(4-bromophenyl)-6-methyl-1,4-dihydropyrimidin-2-ylamino)-N-phenylacetamide (5c)]	12.9 µM	38.5 µM
CC(=O)C1=C(C)NC(SCC(=O)Nc2ccc(C)cc2)=NC1c1ccc(Br)cc1 (stereo not drawn) [2-(5-Acetyl-4-(4-bromophenyl)-6-methyl-1,4-dihydropyrimidin-2-ylthio)-N-p-tolylacetamide (4e)]	1.39 µM	52.8 µM
CC(=O)C1=C(C)NC(SCC(=O)Nc2ccccc2)=NC1c1ccc(Br)cc1 (stereo not drawn) [2-(5-Acetyl-4-(4-bromophenyl)-6-methyl-1,4-dihydropyrimidin-2-ylthio)-N-phenylacetamide (4c)]	8.23 µM	24.5 µM
CC(=O)C1=C(C)NC(NCC(=O)Nc2ccc(C)cc2)=NC1c1ccc(Cl)cc1 (stereo not drawn) [2-(5-Acetyl-4-(4-chlorophenyl)-6-methyl-1,4-dihydropyrimidin-2-ylamino)-N-p-tolylacetamide (5f)]	3.08 µM	26.4 µM
CC(=O)C1=C(C)NC(SCC(=O)Nc2ccc(C)cc2)=NC1c1ccc(Cl)cc1 (stereo not drawn) [2-(5-Acetyl-4-(4-chlorophenyl)-6-methyl-1,4-dihydropyrimidin-2-ylthio)-N-p-tolylacetamide (4f)]	1.11 µM	50 µM
CC(=O)C1=C(C)NC(NCC(=O)Nc2ccc(C)cc2)=NC1c1ccc(C)cc1 (stereo not drawn) [2-(5-Acetyl-6-methyl-4-p-tolyl-1,4-dihydropyrimidin-2-ylamino)-N-p-tolylacetamide (5h)]	7.87 µM	29.4 µM
CC(=O)C1=C(C)NC(SCC(=O)Nc2ccc(C)cc2)=NC1c1ccc(C)cc1 (stereo not drawn) [2-(5-Acetyl-6-methyl-4-p-tolyl-1,4-dihydropyrimidin-2-ylthio)-N-p-tolylacetamide (4h)]	7.63 µM	56.3 µM
CC(=O)C1=C(C)NC(NCC(=O)Nc2ccc(Cl)cc2)=NC1c1ccccc1 (stereo not drawn) [2-(5-Acetyl-6-methyl-4-phenyl-1,4-dihydropyrimidin-2-ylamino)-N-(4-chlorophenyl)acetamide (5b)]	2.01 µM	27.2 µM
CC(=O)C1=C(C)NC(NCC(=O)Nc2ccccc2)=NC1c1ccccc1 (stereo not drawn) [2-(5-Acetyl-6-methyl-4-phenyl-1,4-dihydropyrimidin-2-ylamino)-N-phenylacetamide (5a)]	5.33 µM	15 µM
CC(=O)C1=C(C)NC(SCC(=O)Nc2ccccc2)=NC1c1ccccc1 (stereo not drawn) [2-(5-Acetyl-6-methyl-4-phenyl-1,4-dihydropyrimidin-2-ylthio)-N-phenylacetamide (4a)]	0.17 µM	2.37 µM
CC(=O)C1=C(C)NC(SCC(=O)Nc2ccc(Cl)cc2)=NC1c1ccccc1 (stereo not drawn) [2-((5-Acetyl-6-methyl-4-phenyl-1,4-dihydropyrimidin-2-yl)thio)-N-(4-chlorophenyl)acetamide (4b)]	1.97 µM	16.4 µM
CC(=O)C1=C(C)NC(=S)NC1c1ccccc1 (stereo not drawn) [5-Aceto-6-methyl-4-phenyl-3,4-dihydropyrimidin-2(1H)-thione (1a)]	87.6 µM	
